Assay results published in publication PMC5674900, “Identification of new channels by systematic analysis of the mitochondrial outer membrane” (The Journal of Cell Biology, 2017).
Changes are numbered by the printed parent chain.

Key:
Ayr1 [1] = molecular target: T1, Ayr1 (Saccharomyces cerevisiae, UniProt P40471, G20A/G22A); experiment: planar lipid bilayer electrophysiology, reconstituted channel; type: biochemical; settings: 1 mM NADPH; symmetrical 250 mM KCl, pH 7.0; activator of channel gating; NADPH-binding motif mutant, effect mostly abolished
T1 construct: ORF with His10 tag, expressed in E. coli BL21(DE3), purified in urea, reconstituted into liposomes / planar lipid bilayer; 33 kD
T1 sequence (P40471 1-297 G20A/G22A): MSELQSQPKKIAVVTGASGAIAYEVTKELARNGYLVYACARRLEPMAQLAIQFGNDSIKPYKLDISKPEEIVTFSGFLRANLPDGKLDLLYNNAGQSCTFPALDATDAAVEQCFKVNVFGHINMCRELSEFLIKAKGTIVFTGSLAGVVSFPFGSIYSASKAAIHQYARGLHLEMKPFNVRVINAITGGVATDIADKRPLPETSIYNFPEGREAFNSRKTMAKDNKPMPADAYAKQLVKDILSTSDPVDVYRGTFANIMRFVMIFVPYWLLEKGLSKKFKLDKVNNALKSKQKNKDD

Ayr1 [2] = molecular target: T2, Ayr1 (Saccharomyces cerevisiae, UniProt P40471); experiment: as above; type: biochemical; settings: 1 mM NADPH; symmetrical 250 mM KCl, pH 7.0; activator of channel gating
T2 construct: ORF with His10 tag, expressed in E. coli BL21(DE3), purified in urea, reconstituted into liposomes / planar lipid bilayer; 33 kD
T2 sequence (P40471 1-297): T1 sequence (P40471 1-297 G20A/G22A) with A20G, A22G

NC(=O)C1=CN([C@@H]2O[C@H](COP(=O)(O)OP(=O)(O)OC[C@H]3O[C@@H](n4cnc5c(N)ncnc54)[C@H](OP(=O)(O)O)[C@@H]3O)[C@@H](O)[C@H]2O)C=CC1 [NADPH]
planar lipid bilayer electrophysiology, reconstituted channel (Ayr1 [1]): the effect of NAPDH was mostly abolished, and no increase of the gating frequency was observed | planar lipid bilayer electrophysiology, reconstituted channel (Ayr1 [2]): NADPH strongly stimulated the frequency of gating between the distinct states
